From patent publication US20090221056A1, “Pathogen-Detecting Cell Preservation Systems” (priority 2005, published 2009)
“Also recorded” adds a separate entry of the source. The star is where a group is joined. Cbz = O=C(OCc1ccccc1)*; CH2F = FC*

How the values were obtained:
CANARY cells = experiment: Toxicity of chemical additives to CANARY cells; conditions: at 50 μM
CANARY B cells = experiment: Viability of CANARY cells after storage with chemical additives; format: cell-based; conditions: storage at room temperature (1-3 weeks), compared to cells without additive
[1] = tested on: CANARY B cells (expressing a receptor specific for Yersinia pestis); format: cell-based

Row | Substance | toxicity of additive (CANARY cells) | viability of cells stored at room temperature (CANARY B cells) | viability of cells stored at room temperature (CANARY B cells; listed as Tunicamycin) | activity (antigen detection) of cells stored at room temperature [1] | beneficial effect on stored cells (viability and/or activity) [1] | benefit of treatment to stored cells [1]
1 | Cbz-WEHD-CH2F | toxic | – | – | – | – | –
2 | tunicamycin | – | improved both viability and activity | increases both cell viability and activity | increases both cell viability and activity; also recorded: retained detection sensitivity for Yersinia pestis; also recorded: improved both viability and activity | beneficial effects | detrimental
3 | Cbz-LEHD-CH2F | toxic | – | – | – | – | –
